Measured values taken from PMC9520760 (ACS Omega, 2022).

Tests used:
[1] = tested on: MCF-7 cells; assay: MTT cell proliferation assay, MCF-7; type: cell-based, human; conditions: for IC50: Homo sapiens, MCF7, 48 h, read-out: IC50 (Mean ± SEM) MCF-7; for antiproliferative activity against MCF-7: MTT assay
[2] = tested on: PC-3 cells; assay: MTT cell proliferation assay, PC-3; type: cell-based; conditions: Homo sapiens, PC-3, 48 h, read-out: IC50 (Mean ± SEM) PC-3
[3] = tested on: HEK-293 cells; assay: MTT toxicity in normal cell line HEK-293; type: cell-based; conditions: Homo sapiens, HEK293, 48 h, read-out: IC50 (Mean ± SEM) HEK-293
[4] = tested on: MDA-MB-231 cells; assay: MTT cell proliferation assay, MDA-MB-231; type: cell-based, human; conditions: for IC50: Homo sapiens, MDA-MB-231, 48 h, read-out: IC50 (Mean ± SEM) MDA-MB-231; for antiproliferative activity against MDA-MB-231: MTT assay
[5] = tested on: HeLa cells; assay: MTT cell proliferation assay, HeLa; type: cell-based, human; conditions: for IC50: Homo sapiens, HeLa, 48 h, read-out: IC50 (Mean ± SEM) HeLa; for antiproliferative activity against HeLa: MTT assay
[6] = tested on: Ishikawa cell line; assay: MTT cell proliferation assay, Ishikawa; type: cell-based, human; conditions: for IC50: Homo sapiens, Ishikawa, 48 h, read-out: IC50 (Mean ± SEM) Ishikawa
[7] = tested on: various cancer cell lines; assay: MTT assay, panel of cancer cell lines; type: cell-based; conditions: Homo sapiens, read-out: IC50 against various cancer cell lines

Compound | IC50 [1] | antiproliferative activity against MCF-7 [1] | IC50 [2] | IC50 [3] | IC50 [4] | antiproliferative activity against MDA-MB-231 [4] | IC50 [5] | antiproliferative activity against HeLa [5] | IC50 [6] | IC50 [7] | antiproliferative activity against Ishikawa ([6]; MTT assay)
Cc1nn(-c2ccccc2)c(O)c1C(c1ccccc1)c1c(C)nn(-c2ccccc2)c1O [3a] | 35.1 ± 1.38 µM | weak inhibition | > 40 µM | > 40 µM | 30.8 ± 1.49 µM | weak inhibition | 30.7 ± 1.38 µM | weak inhibition | 30.2 ± 2.12 µM |  | 
Cc1nn(-c2ccccc2)c(O)c1C(c1ccc(Cl)cc1)c1c(C)nn(-c2ccccc2)c1O [3c] | 16.3 ± 0.62 µM | good inhibition | > 40 µM | > 40 µM | 22.4 ± 1.34 µM | mild inhibition | 32.4 ± 1.62 µM | weak antiproliferative activity | 36.9 ± 1.38 µM | 5.45 to 18.3 µM | weak antiproliferative activity
